Assay results taken from patent EP0036153A1, “1,1-Diphenyl-2-(1,2,4-triazol-1-yl)-ethan-1-oles as antimycotic agents” (BASF Aktiengesellschaft, priority 1980, dated 1981).
In brackets after ≈: the same amount, converted by molar mass. Counter-ions that a name gives are not always drawn. Like-named read-outs stand apart in the source and are kept apart here.

How the values were obtained:
[1] = Acute oral toxicity (LD50) in the mouse; assay type: in vivo; conditions: for LD50: mouse, in vivo, po, Maus
[2] = test system: Candida albicans (Robin) Berkhout No 20/M; test: Pseudomycelium and mycelium phase test with Candida albicans (minimal inhibitory concentration, 100 % inhibition); assay type: cell-based; conditions: microaerophilic, 2 days, 37°C; for MIC: Candida albicans, 48 h, read-out: MHKMyzelph.
Description: Pseudomyzel- und Myzelphasentest mit Candida albicans: • Dieser Test berücksichtigt, daß C. albicans in vivo nicht nur Sproßzellen, sondern auch Pseudomyzel und echtes Myzel ausbilden kann (Dimorphie). In vitro wird die Ausbildung aller Wachstumsphasen dieses Keimes und der Einfluß von antimyzetisch wirksamen Substanzen in folgender Weise geprüft: Candida albicans (Robin) Berkhout No 20/M (Stamm der Mykothek, Nordmark-Werke GmbH) wird mit der Impföse einerseits auf die Oberfläche A des Nährmediums (Brain Heart Infusion, Difco) und andererseits bei B als Stichkultur angeimpft (Figur).
Im Bereich der Stichkultur wird zusätzlich ein Deckglas C aufgelegt (mikroaerophile Bedingungen). Die Petrischale D enthält im Nährmedium eine geometrisch abgestufte Verdünnungsreihe der jeweiligen Prüfsubstanz. Nach Inkubation dieser Testplatten (2 Tage, 37°C) sind in präparatefreien Kontrollplatten im aeroben Berzirk A ausschließlich Sproßzellen (Hefephase), im mikroaerophilen Bezirk B ausschließlich Pseudohyphen und echte Hyphen gewachsen.
Als minimale Hemmkonzentrationen wurden diejenigen Konzentrationsstufen des Prüfpräparates bezeichnet, bei denen eine 100 %ige Hemmung des jeweiligen Pilzwachstums zu beobachten war.
Diese Testanordnung ermöglicht es, zwischen der minimalen Hemmkonzentration der Hefephase (MHKHefephase) ) und der MHK der Pseudomyzelphase bzw. M^yzelphase (MHKMyzelDhase) für Candida albicans zu unterscheiden.
Während die MHK-Werte für die Hefephase bei über 128 µg/ml liegen, ergeben sich für die Mycelphase äußerst niedrige MHK-Werte, wie aus der Tabelle 1 hervorgeht.

T. mentagroph. = test: Agar dilution test against dermatophytes; assay type: cell-based
Description: (§1) Die antimikrobielle Wirksamkeit in vitro gegen Dermatophyt wurde im Agar-Dilutionstest (Lit.: P. Klein "Bakteriologische Grundlagen der chemotherapeutischen Laboratoriumspraxis") ermittelt. Das Ergebnis dieser Untersuchungen am Beispiel der Verbindung Nr. 3 zeigt Tabelle 2.

M. canis = test: Agar dilution test against dermatophytes; assay type: cell-based; conditions: Microsporum canis, read-out: MHK
Description: as §1

M. ferrugineum = test: Agar dilution test against dermatophytes; assay type: cell-based; conditions: M. ferrugineum No. 5; read-out: MHK
Description: as §1

E. floccosum = test: Agar dilution test against dermatophytes; assay type: cell-based; conditions: Epidermophyton floccosum; E. floccosum No. 157; read-out: MHK
Description: as §1

T. schoenleinii = test: Agar dilution test against dermatophytes; assay type: cell-based; conditions: T. schoenleinii No. 9; read-out: MHK
Description: as §1

M. audouinii = test: Agar dilution test against dermatophytes; assay type: cell-based; conditions: Microsporum audouinii; M. audouinii No. 4; read-out: MHK
Description: as §1

T. violaceum = test: Agar dilution test against dermatophytes; assay type: cell-based; conditions: Trichophyton violaceum; T. violaceum No. 10; read-out: MHK
Description: as §1

Structure (SMILES)	LD50 [1]	MIC [2]	LD50 (Maus) p.o. [1]	MHKMyzelph. [2]	other results
OC(Cn1cncn1)(c1ccc(Cl)cc1)c1ccc(Cl)cc1 [Beispiel 1, 1,1-Bis-(4-chlorphenyl)-2-(1.2.4-triazol-1-yl)--äthan-1-ol]	> 1000 mg/kg	< 0.125 µg/mL	–	–	–
OC(Cn1cncn1)(c1ccc(Cl)cc1)c1ccc(Cl)cc1 [Beispiel 2, 1,1-Bis-(4-chlorphenyl)-2-(1.2.4-triazol-1-yl)--äthan-1-ol-hydrochlorid]	–	–	>1000 mg/kg	<0,125 µg/ml	–
OC(Cn1cncn1)(c1ccc(Cl)cc1)c1ccc(Cl)cc1Cl (centres unmarked) [Beispiel 3, 1-(4-Chlorphenyl)-1-(2,4-dichlorphenyl)-2-(1,2,4-triazol-1-yl)-äthan-1-ol]	–	< 0.125 µg/mL	>4000 mg/kg	–	MIC (T. mentagroph.; T. mentagroph. No. 172, read-out: MHK): 0.25 µg/mL (≈ 0.678 µM); MHK (T. mentagroph.; T. mentagroph. No. 173): 0,25 µg/ml; MIC (M. canis; M. canis No. 167): 4 µg/mL (≈ 10.9 µM); MIC (M. canis; M. canis No. 168): 2 µg/mL (≈ 5.43 µM); MIC (M. canis; M. canis No. 169): 8 µg/mL (≈ 21.7 µM); MIC (M. ferrugineum): 0.5 µg/mL (≈ 1.36 µM); MIC (E. floccosum): 16 µg/mL (≈ 43.4 µM); MIC (T. schoenleinii): 0.25 µg/mL (≈ 0.678 µM); MIC (M. audouinii): 0.25 µg/mL (≈ 0.678 µM); MIC (T. violaceum): 2 µg/mL (≈ 5.43 µM)
OC(Cn1cncn1)(c1ccc(Cl)cc1)c1ccc(Cl)cc1Cl (centres unmarked) [Beispiel 4, 1-(4-Chlorphenyl)-1-(2,4-dichlorphenyl)-2-(1.2.4--triazol-1-yl)-äthan-1-ol-hydrochlorid]	–	–	>1000 mg/kg	<0,125 µg/ml	–
OC(Cn1cncn1)(c1ccc(Cl)cc1)c1ccc(Cl)cc1Cl (centres unmarked) [Beispiel 5, 1-(4-Chlorphenyl)-1-(2,4-dichlorphenyl)-2-(1.2.4--triazol-1-yl)-äthan-1-ol-nitrat]	–	–	>1000 mg/kg	<0,125 µg/ml	–
OC(Cn1cncn1)(c1ccccc1)c1ccccc1Cl (centres unmarked) [Beispiel 6, 1-Phenyl-1-(2-chlorphenyl)-2-(1.2.4-triazol-1-yl)--äthan-1-ol-hydrochlorid]	> 1000 mg/kg	< 0.125 µg/mL	–	–	–
OC(Cn1cncn1)(c1ccccc1)c1ccc(Cl)cc1 (centres unmarked) [Beispiel 7, 1-Phenyl-1-(4-chlorphenyl)-2-(1.2.4-triazol-1-yl)-äthan--1-ol-hydrochlorid]	–	–	>1000 mg/kg	–	–
OC(Cn1cncn1)(c1ccccc1)c1ccc(Cl)cc1 (centres unmarked) [Beispiel 8, 1-Phenyl-1-(4-chlorphenyl)-2-(1.2.4-triazol-1-yl)--äthan-1-ol-nitrat]	> 1000 mg/kg	< 0.125 µg/mL	–	–	–
OC(Cn1cncn1)(c1ccccc1)c1ccc(Cl)cc1Cl (centres unmarked) [Beispiel 9, 1-Phenyl-1-(2,4-dichlorphenyl)-2-(1.2.4-triazol-1-yl)--äthan-1-ol]	> 1000 mg/kg	< 0.125 µg/mL	–	–	–
OC(Cn1cncn1)(c1ccccc1)c1ccc(Cl)cc1Cl (centres unmarked) [Beispiel 10, 1-Phenyl-1-(2,4-dichlorphenyl)-2-(1.2.4-triazol-1-yl)--äthan-1-ol-hydrochlorid]	–	–	>1000 mg/kg	<0,125 µg/ml	–
OC(Cn1cncn1)(c1ccccc1)c1ccc(Cl)cc1Cl (centres unmarked) [Beispiel 11, 1-Phenyl-1-(2,4-dichlorphenyl)-2-(1.2.4-triazol-1-yl)--äthan-1-ol-nitrat]	–	–	>1000 mg/kg	<0,125 µg/ml	–
OC(Cn1cncn1)(c1ccc(Cl)cc1)c1ccccc1Cl (centres unmarked) [Beispiel 12, 1-(2-Chlorphenyl)-1-(4-chlorphenyl)-2-(1.2.4-triazol--1-yl)-äthan-1-ol-hydrochlorid]	> 1000 mg/kg	1 µg/mL	–	–	–
OC(Cn1cncn1)(c1ccccc1Cl)c1ccc(Cl)cc1Cl (centres unmarked) [Beispiel 13, 1-(2-Chlorphenyl)-1-(2,4-dichlorphenyl)-2-(1.2.4-triazol-1-yl)-äthan-1-ol]	> 1000 mg/kg	1 µg/mL (≈ 2.71 µM)	–	–	–
OC(Cn1cncn1)(c1ccccc1Cl)c1ccc(Cl)cc1Cl (centres unmarked) [Beispiel 14, 1-(2-Chlorphenyl)-1-(2,4-dichlorphenyl)-2-(1.2.4-triazol-1-yl)-äthan-1-ol-hydrochlorid]	–	–	>1000 mg/kg	1 µg/mL	–
OC(Cn1cncn1)(c1cccc(Cl)c1)c1ccc(Cl)cc1Cl (centres unmarked) [Beispiel 15, 1-(3-Chlorphenyl)-1-(2,4-dichlorphenyl)-2-(1.2.4-triazol-1-yl)-äthan-1-ol]	> 1000 mg/kg	–	–	<0,125 µg/ml	–
OC(Cn1cncn1)(c1cccc(Cl)c1)c1ccc(Cl)cc1Cl (centres unmarked) [Beispiel 16, 1-(3-Chlorphenyl)-1-(2,4-dichlorphenyl)-2-(1.2.4-triazol-1-yl)-äthan-1-ol-hydrochlorid]	–	–	>1000 mg/kg	1 µg/mL	–
